Assays:
[1] = 101 kPa, Liquid; for viscosity: Capillary tube (Ostwald / Ubbelohde) method; for mass density: Pycnometric method
[2] = xn = mol fraction of the nth substance listed; conditions: 101 kPa, Liquid; for viscosity: Capillary tube (Ostwald / Ubbelohde) method; for mass density: Pycnometric method

COCC(C)O (configuration not stated) [1-methoxy-2-propanol]
[1]
Conditions	mass density [kg/m3]	viscosity [mPa·s]
298.15 K	915.9	1.707
308.15 K	907.1	1.306
318.15 K	896.9	1.069

COCC(C)O (configuration not stated) [1-methoxy-2-propanol] + C=C(C)C(=O)O
[2], x1 = 1
Conditions	mass density [kg/m3]	viscosity [mPa·s]
298.15 K	915.9	1.707
308.15 K	907.1	1.306
318.15 K	896.9	1.069

COCC(C)O (configuration not stated) [1-methoxy-2-propanol] + C=C(C)C(=O)OCCO
[2], x1 = 1
Conditions	mass density [kg/m3]	viscosity [mPa·s]
298.15 K	915.9	1.707
308.15 K	907.1	1.306
318.15 K	896.9	1.069

COCC(C)O (configuration not stated) [1-methoxy-2-propanol] + C=C(C)C(=O)OCc1ccccc1
[2], x1 = 1
Conditions	mass density [kg/m3]	viscosity [mPa·s]
298.15 K	915.9	1.707
308.15 K	907.1	1.306
318.15 K	896.9	1.069

C=C(C)C(=O)OCCO [2-hydroxyethyl 2-methyl-2-propenoate]
[1]
Conditions	mass density [kg/m3]	viscosity [mPa·s]
298.15 K	1067.1	5.784
308.15 K	1057.7	4.194
318.15 K	1048.6	3.181

C=C(C)C(=O)OCCO [2-hydroxyethyl 2-methyl-2-propenoate] + COCC(C)O
[2]
Conditions	mass density, 298.15 K [kg/m3]	mass density, 308.15 K [kg/m3]	mass density, 318.15 K [kg/m3]	viscosity, 298.15 K [mPa·s]	viscosity, 308.15 K [mPa·s]	viscosity, 318.15 K [mPa·s]
x2 = 0	1067.1	1057.7	1048.6	5.784	4.194	3.181
x2 = 0.1	1055.2	1046.2	1037.8	5.12	3.747	2.869
x2 = 0.2	1042.8	1034.1	1025.5	4.607	3.408	2.623
x2 = 0.3	1029.9	1021.2	1012.6	4.13	3.065	2.373
x2 = 0.4	1016.3	1007.5	998.9	3.656	2.757	2.148
x2 = 0.5	1001.7	993	984.4	3.256	2.477	1.947
x2 = 0.6	986.2	977.6	969	2.869	2.208	1.753
x2 = 0.7	969.8	961.5	952.8	2.496	1.944	1.559
x2 = 0.8	952.7	944.5	935.5	2.208	1.73	1.395
x2 = 0.9	934.8	926.6	917.3	1.933	1.528	1.237

C=C(C)C(=O)O [2-methyl-2-propenoic acid]
[1]
Conditions	mass density [kg/m3]	viscosity [mPa·s]
298.15 K	1009.5	1.267
308.15 K	999.4	1.078
318.15 K	989.2	0.945

C=C(C)C(=O)O [2-methyl-2-propenoic acid] + COCC(C)O
[2]
Conditions	mass density, 298.15 K [kg/m3]	mass density, 308.15 K [kg/m3]	mass density, 318.15 K [kg/m3]	viscosity, 298.15 K [mPa·s]	viscosity, 308.15 K [mPa·s]	viscosity, 318.15 K [mPa·s]
x2 = 0	1009.5	999.4	989.2	1.267	1.078	0.945
x2 = 0.1	1000.9	991.8	982.4	1.376	1.163	1.002
x2 = 0.2	992	983.2	974.2	1.659	1.372	1.157
x2 = 0.3	983.5	974.9	966.1	1.982	1.577	1.312
x2 = 0.4	975.3	966.5	957.5	2.124	1.702	1.394
x2 = 0.5	966.6	957.8	948.9	2.233	1.762	1.429
x2 = 0.6	957.5	948.7	940.2	2.255	1.77	1.432
x2 = 0.7	947.3	938.6	930.3	2.14	1.685	1.361
x2 = 0.8	936.9	928.3	919.9	1.969	1.554	1.258
x2 = 0.9	926.2	917.8	909.1	1.809	1.431	1.165

C=C(C)C(=O)OCc1ccccc1 [benzyl methacrylate]
[1]
Conditions	mass density [kg/m3]	viscosity [mPa·s]
298.15 K	1034.7	2.302
308.15 K	1025.8	1.885
318.15 K	1017	1.58

C=C(C)C(=O)OCc1ccccc1 [benzyl methacrylate] + COCC(C)O
[2]
Conditions	mass density, 298.15 K [kg/m3]	mass density, 308.15 K [kg/m3]	mass density, 318.15 K [kg/m3]	viscosity, 298.15 K [mPa·s]	viscosity, 308.15 K [mPa·s]	viscosity, 318.15 K [mPa·s]
x2 = 0	1034.7	1025.8	1017	2.302	1.885	1.58
x2 = 0.1	1026.8	1018.1	1009.5	2.194	1.806	1.52
x2 = 0.2	1018.6	1010.1	1001.4	2.09	1.716	1.441
x2 = 0.3	1009.8	1001.4	992.5	1.99	1.628	1.364
x2 = 0.4	1000.2	991.8	982.8	1.895	1.538	1.291
x2 = 0.5	989.7	981.3	972.2	1.8	1.465	1.228
x2 = 0.6	978.1	969.7	960.5	1.731	1.406	1.166
x2 = 0.7	965.2	956.8	947.5	1.677	1.354	1.115
x2 = 0.8	950.9	942.3	932.7	1.633	1.312	1.084
x2 = 0.9	934.6	925.9	916	1.64	1.308	1.077
